# Data published in US20160168119A1, “AUTOTAXIN INHIBITORS” (Novartis AG, priority 2013, published 2016).
# Biological target: T1, Recombinant human ATX (Homo sapiens, UniProt Q13822)
# T1 construct: made in house; host or cells: human embryonic kidney (HEK) cells
# Assay: ATX inhibition assay (choline release, Amplex Red fluorescence)
# Format: biochemical
# Settings: not given
# Procedure: Reagents—LPC (oleoyl (18:1)) was purchased from Avanti Polar Lipids (Alabaster, Ala.) and solubilized in methanol to 20 mM. Amplex Red was obtained from Invitrogen Life Technologies (Paisley, UK) and dissolved in DMSO to 10 mM. Choline oxidase and horseradish peroxidase (HRP) were obtained from Sigma Aldrich (Dorset, UK) and dissolved in HBSS to 20 U/ml and 200 U/ml respectively. All reagents were stored at −20° C. in single use aliquots. All experimental measurements were performed in assay buffer made up immediately prior to use (HBSS, 0.01% BSA essentially fatty acid free).
# PerkinElmer EnVision (Fluorescence Intensity/Absorbance Monochromator) or Tecan Infinite 200 PRO series plate reader was used to detect change in fluorescent intensity.
# Assessing ATX inhibition—ATX activity was determined by measurement of released choline in reactions containing ATX (10 nM), choline oxidase (0.1 U/ml), HRP (100 U/ml), amplex red (50 μM) and LPC 18:1 (10 μM). Compounds of the invention were prepared as 10 point serial dilutions from 1 μM in duplicate and pre-incubated with ATX at 37° C. for 20 minutes prior to the addition of remaining reagents. The liberated choline was measured from changes in fluorescence intensity (λex 530 nm, λem 590 nm) of the product resurofin at 37° C. every 2 minutes over a 40-minute period. ATX activity was measured as a slope of the linear portion of the progress curve, typically between 14 to 24 minutes.
# Data analysis—Slope data was exported to Graphpad prism (Graphpad software, San Diego, Calif.) where data was fitted to equation 1.
# Y=Bottom+(Top−Bottom)/(1+10̂((LogIC50−X)*HillSlope)) Equation 1: […]
row,IC50 [nM],SMILES
1,9,"Cc1nnn(Cc2cc(C(F)(F)F)ccc2/C=C/C(=O)N(C)CCOc2ccccc2)n1 [Example 6.2, (E)-N-Methyl-3-(2-((5-methyl-2H-tetrazol-2-yl)methyl)-4-(trifluoromethyl)phenyl)-N-(2-phenoxyethyl)acrylamide]"

# Same assay, conditions: ATX 10 nM, LPC 18:1 10 μM, pre-incubated 20 minutes at 37° C.; mean of n≧2; read-out: IC50
row,IC50 [nM],SMILES
1,94,"CCN(CC(O)c1cccc(O)c1)C(=O)/C=C/c1ccc(Cl)cc1Cn1nnc(C)n1 (centres unmarked) [Example 2.5, (E)-3-(4-Chloro-2-((5-methyl-2H-tetrazol-2-yl)methyl)phenyl)-N-ethyl-N-(2-hydroxy-2-(3-hydroxyphenyl)ethyl)acrylamide]"
2,7,"Cc1nnn(Cc2cc(C(F)(F)F)ccc2/C=C/C(=O)N(C)CC2CC(=O)N(C(C)(C)C)C2)n1 (centres unmarked) [Example 6.8, (E)-N-((1-(tert-Butyl)-5-oxopyrrolidin-3-yl)methyl)-N-methyl-3-(2-((5-methyl-2H-tetrazol-2-yl)methyl)-4-(trifluoromethyl)phenyl)acrylamide]"
3,183,"Cc1nnn(Cc2cc(Cl)ccc2/C=C/C(=O)N(C)CC2CCCO2)n1 (centres unmarked) [Example 2.7, (E)-3-(4-Chloro-2-((5-methyl-2H-tetrazol-2-yl)methyl)phenyl)-N-methyl-N-((tetrahydrofuran-2-yl)methyl)acrylamide]"
4,40,"Cc1csc(CN(C)C(=O)/C=C/c2ccc(C(F)(F)F)cc2Cn2nnc(C)n2)n1 [Example 6.3, (E)-N-Methyl-3-(2-((5-methyl-2H-tetrazol-2-yl)methyl)-4-(trifluoromethyl)phenyl)-N-((4-methylthiazol-2-yl)methyl)acrylamide]"
5,52,"Cc1nnn(Cc2cc(Cl)ccc2/C=C/C(=O)N(C)CC2CC(=O)N(C(C)(C)C)C2)n1 (centres unmarked) [Example 2.6, (E)-N-((1-(tert-Butyl)-5-oxopyrrolidin-3-yl)methyl)-3-(4-chloro-2-((5-methyl-2H-tetrazol-2-yl)methyl)phenyl)-N-methylacrylamide]"
6,12,"Cc1nnn(Cc2cc(C(F)(F)F)ccc2/C=C/C(=O)N(C)Cc2nc3ccccc3s2)n1 [Example 6.10, (E)-N-(Benzo[d]thiazol-2-ylmethyl)-N-methyl-3-(2-((5-methyl-2H-tetrazol-2-yl)methyl)-4-(trifluoromethyl)phenyl)acrylamide]"
7,74,"Cc1csc(CN(C)C(=O)/C=C/c2ccc(Cl)cc2Cn2nnc(C)n2)n1 [Example 2.2, (E)-3-(4-Chloro-2-((5-methyl-2H-tetrazol-2-yl)methyl)phenyl)-N-methyl-N-((4-methylthiazol-2-yl)methyl)acrylamide]"
8,5.3,"Cc1nnn(Cc2cc(C(F)(F)F)ccc2/C=C/C(=O)N(C)Cc2nc(-c3ccccc3)no2)n1 [Example 6.9, (E)-N-Methyl-3-(2-((5-methyl-2H-tetrazol-2-yl)methyl)-4-(trifluoromethyl)phenyl)-N-((3-phenyl-1,2,4-oxadiazol-5-yl)methyl)acrylamide]"
9,73,"Cc1cc(CN(C)C(=O)/C=C/c2ccc(Cl)cc2Cn2nnc(C)n2)on1 [Example 2.3, (E)-3-(4-Chloro-2-((5-methyl-2H-tetrazol-2-yl)methyl)phenyl)-N-methyl-N-((3-methylisoxazol-5-yl)methyl)acrylamide]"
10,20,"CCN(C(=O)/C=C/c1ccc(C(F)(F)F)cc1Cn1nnc(C)n1)C1CCN(C(=O)OC(C)(C)C)CC1 [Example 1.2, (E)-tert-Butyl-4-(N-ethyl-3-(2-((5-methyl-2H-tetrazol-2-yl)methyl)-4-(trifluoromethyl)phenyl)acrylamido)piperidine-1-carboxylate]"
11,14,"Cc1nnn(Cc2cc(Cl)ccc2/C=C/C(=O)N(C)CC2CCN(C(=O)OC(C)(C)C)CC2)n1 [Example 1.1, (E)-tert-Butyl 4-((3-(4-chloro-2-((5-methyl-2H-tetrazol-2-yl)methyl)phenyl)-N-methylacrylamido)methyl)piperidine-1-carboxylate]"
12,10,"Cc1nnn(Cc2cc(C(F)(F)F)ccc2/C=C/C(=O)N(C)CC2CCN(C(=O)c3ccc(F)cc3)CC2)n1 [Example 3, (E)-N-((1-(4-Fluorobenzoyl)piperidin-4-yl)methyl)-N-methyl-3-(2-((5-methyl-2H-tetrazol-2-yl)methyl)-4-(trifluoromethyl)phenyl)acrylamide]"
13,49,"Cc1nnn(Cc2cc(C(F)(F)F)ccc2/C=C/C(=O)N(C)CCCCc2cccnc2)n1 [Example 6.6, (E)-N-Methyl-3-(2-((5-methyl-2H-tetrazol-2-yl)methyl)-4-(trifluoromethyl)phenyl)-N-(4-(pyridin-3-yl)butyl)acrylamide]"
14,13,"Cc1nnn(Cc2cc(C(F)(F)F)ccc2/C=C/C(=O)N(C)CC2CCN(Cc3ccc(F)cc3)CC2)n1 [Example 5, (E)-N-((1-(4-Fluorobenzyl)piperidin-4-yl)methyl)-N-methyl-3-(2-((5-methyl-2H-tetrazol-2-yl)methyl)-4-(trifluoromethyl)phenyl)acrylamide]"
15,13,"Cc1nnn(Cc2cc(C(F)(F)F)ccc2/C=C/C(=O)N(C)Cc2nnc(-c3ccccc3)o2)n1 [Example 6.4, (E)-N-Methyl-3-(2-((5-methyl-2H-tetrazol-2-yl)methyl)-4-(trifluoromethyl)phenyl)-N-((5-phenyl-1,3,4-oxadiazol-2-yl)methyl)acrylamide]"
16,4.5,"Cc1ccc(S(=O)(=O)N2CCC(CN(C)C(=O)/C=C/c3ccc(C(F)(F)F)cc3Cn3nnc(C)n3)CC2)cc1 [Example 4.2, (E)-N-Methyl-3-(2-((5-methyl-2H-tetrazol-2-yl)methy)-4-(trifluoromethyl)phenyl)-N-((1-tosylpiperidin-4-yl)methyl)acrylamide]"
17,6.9,"Cc1cc(CN(C)C(=O)/C=C/c2ccc(C(F)(F)F)cc2Cn2nnc(C)n2)n(C)n1 [Example 6.1, (E)-N-((1,3-Dimethyl-1H-pyrazol-5-yl)methyl)-N-methyl-3-(2-((5-methyl-2H-tetrazol-2-yl)methyl)-4-(trifluoromethyl)phenyl)acrylamide]"
18,64,"CCN(Cc1ccncc1)C(=O)/C=C/c1ccc(Cl)cc1Cn1nnc(C)n1 [Example 2.1, (E)-3-(4-Chloro-2-((5-methyl-2H-tetrazol-2-yl)methyl)phenyl)-N-ethyl-N-(pyridin-4-ylmethyl)acrylamide]"
19,4.9,"Cc1nnn(Cc2cc(C(F)(F)F)ccc2/C=C/C(=O)N(C)CC2CCN(S(=O)(=O)C3CC3)CC2)n1 [Example 4.1, (E)-N-((1-(Cyclopropylsulfonyl)piperidin-4-yl)methyl)-N-methyl-3-(2-((5-methyl-2H-tetrazol-2-yl)methyl)-4-(trifluoromethyl)phenyl)acrylamide]"
20,6,"Cc1nnn(Cc2cc(C(F)(F)F)ccc2/C=C/C(=O)N(C)Cc2nc(-c3ccccc3)cs2)n1 [Example 6.7, (E)-N-Methyl-3-(2-((5-methyl-2H-tetrazol-2-yl)methyl)-4-(trifluoromethyl)phenyl)-N-((4-phenylthiazol-2-yl)methyl)acrylamide]"
21,16,"COc1ccc(CNC(=O)CN(C)C(=O)/C=C/c2ccc(C(F)(F)F)cc2Cn2nnc(C)n2)cc1 [Example 6.5, (E)-N-(2-((4-Methoxybenzyl)amino)-2-oxoethyl)-N-methyl-3-(2-((5-methyl-2H-tetrazol-2-yl)methyl)-4-(trifluoromethyl)phenyl)acrylamide]"
22,50,"CCN(CCOC)C(=O)/C=C/c1ccc(Cl)cc1Cn1nnc(C)n1 [Example 2.4, (E)-3-(4-Chloro-2-((5-methyl-2H-tetrazol-2-yl)methyl)phenyl)-N-ethyl-N-(2-methoxyethyl)acrylamide]"
